Data reported in US20260198499A1, “PLANT STOMATAL OPENING REGULATOR” (priority 2022, published 2026).
Where two headings read alike, the source gives them in different places.

Experiments:
[1] = test system: stomatal aperture of Commelina benghalensis leaf disks; assay: Stomatal opening regulatory action measurement test 1 (IC50 of stomatal aperture, leaf disks); type: cell-based; details: read-out: IC50 (50% inhibitory concentration of stomatal aperture)
Experimental: (§1) Part of the stem of Commelina benghalensis was inserted into a planter filled with mixed soil of vermiculite and peat moss, and grown indoors with natural light (room temperature: 25±3° C.) for 2 to 4 weeks. The planter was placed in a dark room and subjected to dark treatment overnight. After the dark treatment, leaf disks with a diameter of 4 mm were cut from fully expanded leaves using a hole punch (Biospy Punch, Kai Medical).
Each test solution was dispensed into five wells of a 96-well plate at 50 μl/well, and the leaf disks were immersed therein, followed by incubation under light irradiation (50 μmol m^−2s^−1 blue light) for 3 hours. After incubation, stomatal closure was evaluated under observation images (600×) using a stereofluorescence microscope (Leica M205FA). The minor diameter of about 20 stomata (hereinafter referred to as “stomatal aperture”) was measured for each leaf disk.

[2] = test system: plasma membrane proton pump (H+-ATPase) phosphorylation in guard cells; assay: Immunohistochemical measurement of blue light- and fusicoccin-induced phosphorylation of the plasma membrane proton pump in guard cells; type: cell-based, Arabidopsis thaliana; details: compound 1 100 μM, compound 4 20 µM, compound 5 20 μM, FIG. 2; for inhibitory effect on blue light-induced phosphorylation of the plasma membrane proton pump: Arabidopsis guard cells; for inhibitory effect on fusicoccin-induced phosphorylation of the plasma membrane proton pump: fusicoccin 10 μM
Experimental: Blue light- and fusicoccin-induced phosphorylation of the plasma membrane proton pump in guard cells from the epidermis of Arabidopsis thaliana was measured immunohistochemically as previously reported (Hayashi et al. (2011) Immunohistochemical detection of blue light-induced phosphorylation of the plasma membrane H^+-ATPase in stomatal guard cells. Plant Cell Physiol. 52:1238-1248). The test compounds used were compound 1 (BITC), compound 4 (m-Bis-BITC), and compound 5 (Tris-BITC). The concentration of compound 1 during action was 100 μM, the concentration of compound 4 during action was 20 µM, the concentration of compound 5 during action was 20 μM, and the concentration of fusicoccin during action was 10 μM.

[3] = test system: Chinese cabbage (Brassica rapa); assay: Drought tolerance test 2 (sprayed Chinese cabbage, water depleted); type: in vivo; details: Chinese cabbage sprayed with 50 μM, 24 hours, 25° C., relative humidity 40 to 50%, FIG. 7
Experimental: A test solution (0.033% Makupika (spreader, Isk Biosciences K.K.)) containing compound 4 (m-Bis-BITC) was sprayed onto 4- to 5-week-old Chinese cabbage (Brassica rapa) growing in 110 ml of soil. The concentration of compound 4 in the test solution was 50 μM. Then, the water was depleted, and the plants were cultured for 24 hours in a greenhouse at 25° C. at a relative humidity of 40 to 50% on a sunny day.

[4] = test system: chrysanthemums (Chrysanthemum); assay: Drought tolerance test 1 (dehydrated chrysanthemum bouquet); type: in vivo; details: 21° C., 90 minutes, relative humidity 35 to 40%, FIG. 6
Experimental: (§2) A bouquet of chrysanthemums (Chrysanthemum) was purchased and cultured in a water bottle at 24° C. with a photoperiod of 16 h white light (100 μmol m^−2s^−1)/8 h darkness for 2 days. After the dark period ended, the leaves were immersed in a test solution (0.033% Makupika (spreader, Isk Biosciences K. K.)) containing the test compound (compound 1 (BITC), compound 4 (m-Bis-BITC), or abscisic acid (ABA)) and incubated under white light (100 μmol m^−2s^−1) for 3 hours or incubated with a photoperiod of 16 h light/16 h darkness (light→dark→light) for 48 hours. After incubation, the stomatal aperture was measured in the same manner as in Test Example 1.
After incubation for 3 hours in Test Example 5, the bouquet was dehydrated and incubated at 21° C. for 90 minutes under 10 μmol m^−2s^−1 white light at a relative humidity of 35 to 40%.

[5] = test system: stomatal opening in intact leaves of chrysanthemums; assay: Stomatal opening regulatory action measurement test 3 (intact chrysanthemum leaves); type: in vivo; details: for inhibitory effect on stomatal opening in intact leaves: chrysanthemum leaves immersed in test solution, white light 3 hours, FIGS. 4 and 5
Experimental: as §2

[6] = test system: ABA-responsive kinase substrate (AKS); assay: Immunoblot analysis of phosphorylation of ABA-responsive kinase substrate (AKS) in guard cells; type: cell-based; details: compound 1 100 μM; Vicia faba guard cells; FIG. 3
Experimental: Abscisic acid (ABA)-induced phosphorylation of ABA-responsive kinase substrate (AKS) in guard cells from the epidermis of broad bean (Vicia faba) was measured by immunoblot analysis as previously reported (Takahashi et al. (2007) Protein Phosphorylation and Binding of a 14-3-3 Protein in Vicia Guard Cells in Response to ABA. Plant and Cell Physiology. 48:1182-1191). The test compounds used were compound 1 (BITC) and abscisic acid. The concentration of compound 1 during action was 100 μM, and the concentration of abscisic acid during action was 20 μM.

[7] = test system: ABA-related responses in Arabidopsis thaliana; assay: ABA-related responses (seed germination, ABA-responsive genes RAB18 and RD29B); type: in vivo
[8] = test system: stomatal opening of leaf disks; assay: Stomatal opening regulatory action measurement test 2 (light- and fusicoccin-induced stomatal opening); type: cell-based, Commelina benghalensis; details: compound 1 100 μM, FIG. 1
Experimental: as §1
[…] After incubation, stomatal closure was evaluated under observation images (600×) using a stereofluorescence microscope (Leica M205FA). The minor diameter of about 20 stomata (hereinafter referred to as “stomatal aperture”) was measured for each leaf disk. Based on the measured values of stomatal aperture at each concentration for each test compound, the 50% inhibitory concentration (IC50) of stomatal aperture was calculated.
Compound 1 (BITC: benzyl isothiocyanate) (final concentration in the test solution: 100 μM) and abscisic acid (final concentration in the test solution: 20 µM) were used as test compounds. A test solution was also prepared by adding fusicoccin (final concentration: 10 μM) in addition to the test compound. […] The mean and standard deviation (SD) were calculated based on the measured values.

[9] = Commelina benghalensis leaf disks, 3 hours under 50 μmol m−2s−1 blue light

| SMILES | IC50 ([1]; Commelina benghalensis, 3 h) [µM] | inhibitory effect on blue light-induced phosphorylation of the plasma membrane proton pump [2] | inhibitory effect on fusicoccin-induced phosphorylation of the plasma membrane proton pump [2] | IC50 [1, 9] [µM] | drought tolerance and wilting [3] | drought tolerance and wilting [4] | inhibitory effect on stomatal opening in intact leaves [5] | persistence of the stomatal opening inhibitory effect ([5]; chrysanthemum leaves, 48 hours incubation, m-Bis-BITC 50 µM, FIG. 5) | induction of phosphorylation of the ABA-responsive kinase substrate [6] | effect on ABA-related responses, including inhibition of seed germination and induction of ABA-responsive genes (RAB18 and RD29B) [7] | inhibitory effect on stomatal opening compared with abscisic acid ([8]; abscisic acid 20 µM, 3 hours red and blue light) | inhibitory effect on stomatal opening induced by fusicoccin ([8]; fusicoccin 10 μM, 3 hours) |
| --- | --- | --- | --- | --- | --- | --- | --- | --- | --- | --- | --- | --- |
| S=C=NCc1cccs1 [Compound 2] | 20.6 | – | – | – | – | – | – | – | – | – | – | – |
| S=C=NC[C@H]1CC[C@H](CN=C=S)CC1 [Compound 27, trans-1,4-bis(isothiocyanatomethyl)cyclohexane] | 11.4 | – | – | – | – | – | – | – | – | – | – | – |
| S=C=NCc1cccc(CN=C=S)c1 [Compound 4] | – | inhibitory effects | inhibitory effects | 1.7 | could improve drought tolerance and suppress wilting over a long period of time | could improve drought tolerance and suppress wilting | inhibitory effect on stomatal opening even in intact leaves | excellent in the persistence | – | – | – | – |
| S=C=NCc1ccccc1 [Compound 1, benzyl isothiocyanate] | – | inhibitory effects | inhibitory effects | 29.1 | – | could improve drought tolerance and suppress wilting | inhibitory effect on stomatal opening even in intact leaves | – | did not induce phosphorylation | no effect | more potent inhibitory effect on stomatal opening than abscisic acid | exhibited an inhibitory effect on stomatal opening induced by fusicoccin |
| S=C=NCc1cc(CN=C=S)cc(CN=C=S)c1 [Compound 5, 1,3,5-tris(isothiocyanatomethyl)benzene] | 0.44 | inhibitory effects | inhibitory effects | – | – | – | – | – | – | – | – | – |
